In paper PMC4869360, “An allosteric role for receptor activity-modifying proteins in defining GPCR pharmacology” (Cell Discovery, 2016):
Residue numbers refer to the chain shown, from its start.

Legend:
Assay type in all cases: cell-based
Conditions in all cases: Cos-7, mean±s.e.m., read-out: pEC50 mutant (converted)
[1] = target: T1, CT(a) receptor, W79A mutant (Homo sapiens, UniProt P30988, W79A); experiment: cAMP assay, W79A CT(a)
T1 sequence (P30988 25-474 W79A): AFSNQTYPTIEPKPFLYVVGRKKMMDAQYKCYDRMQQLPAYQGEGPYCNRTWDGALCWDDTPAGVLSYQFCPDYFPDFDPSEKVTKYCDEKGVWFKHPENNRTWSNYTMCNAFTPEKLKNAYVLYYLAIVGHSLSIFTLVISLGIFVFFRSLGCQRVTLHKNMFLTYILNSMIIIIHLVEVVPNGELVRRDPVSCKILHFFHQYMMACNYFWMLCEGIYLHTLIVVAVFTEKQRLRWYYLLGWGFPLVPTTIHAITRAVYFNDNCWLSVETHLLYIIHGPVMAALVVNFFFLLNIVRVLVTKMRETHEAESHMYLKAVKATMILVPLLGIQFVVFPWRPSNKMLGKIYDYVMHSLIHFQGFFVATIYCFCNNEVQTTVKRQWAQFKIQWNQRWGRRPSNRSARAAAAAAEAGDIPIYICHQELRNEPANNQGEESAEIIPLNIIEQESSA
Text: (§1) This is the insert-negative form of the receptor and is referred to as hCT(a), to comply with International Union of Pharmacology guidelines. Myc tagged RAMP1 and untagged RAMP3 constructs were used for AMY receptor experiments.
(§2) Primers were purchased from Integrated DNA Technologies Ltd (Coralville, IA, USA). Kapa HiFi readymix (Kapa Biosystems, Wilmington, MA, USA) or Primestar HS enzymes (TaKaRa Bio, Kyoto, Japan) were substituted for Pfu polymerase.
(§3) After stimulation the reaction was stopped by removing media and adding 50 μl per well of ice-cold absolute ethanol. Plates were stored at −30 °C for up to 4 days before the measurement of cAMP was performed.

[2] = target: T2, CT(a) receptor, D101A mutant (Homo sapiens, UniProt P30988, D101A); experiment: cAMP assay, D101A CT(a)
T2 sequence (P30988 25-474 D101A): T1 sequence (P30988 25-474 W79A) with A55W, D77A
Text: as §1, §2, §3

[3] = target: T3, CT(a) receptor, R126A mutant (Homo sapiens, UniProt P30988, R126A); experiment: cAMP assay, R126A CT(a)
T3 sequence (P30988 25-474 R126A): T1 sequence (P30988 25-474 W79A) with A55W, R102A
Text: as §1, §2, §3

[4] = target: T4, CT(a) receptor, W128A mutant (Homo sapiens, UniProt P30988, W128A); experiment: cAMP assay, W128A CT(a)
T4 sequence (P30988 25-474 W128A): T1 sequence (P30988 25-474 W79A) with A55W, W104A
Text: as §1, §2, §3

[5] = target: T5, CT(a) receptor, Y131A mutant (Homo sapiens, UniProt P30988, Y131A); experiment: cAMP assay, Y131A CT(a)
T5 sequence (P30988 25-474 Y131A): T1 sequence (P30988 25-474 W79A) with A55W, Y107A
Text: as §1, §2, §3

Compound: CC(C)C[C@H](NC(=O)CNC(=O)[C@H](C)NC(=O)[C@H](CC(C)C)NC(=O)[C@H](CCCNC(=N)N)NC(=O)[C@H](Cc1cnc[nH]1)NC(=O)[C@@H](NC(=O)[C@@H](NC(=O)[C@@H]1CSSC[C@H](NC(=O)[C@H](C)N)C(=O)N[C@@H](CC(=O)O)C(=O)N[C@@H]([C@@H](C)O)C(=O)N[C@@H](C)C(=O)N[C@@H]([C@@H](C)O)C(=O)N1)C(C)C)[C@@H](C)O)C(=O)N[C@@H](CC(C)C)C(=O)N[C@@H](CO)C(=O)N[C@@H](CCCNC(=N)N)C(=O)N[C@@H](CO)C(=O)NCC(=O)NCC(=O)N[C@H](C(=O)N[C@H](C(=O)N[C@@H](CCCCN)C(=O)N[C@@H](CC(N)=O)C(=O)N[C@@H](CC(N)=O)C(=O)N[C@@H](Cc1ccccc1)C(=O)N[C@H](C(=O)N1CCC[C@H]1C(=O)N[C@H](C(=O)N[C@@H](CC(N)=O)C(=O)N[C@H](C(=O)NCC(=O)N[C@@H](CO)C(=O)N[C@@H](CCCCN)C(=O)N[C@@H](C)C(=O)N[C@@H](Cc1ccccc1)C(N)=O)C(C)C)[C@@H](C)O)C(C)C)C(C)C)C(C)C [hαCGRP, human αCGRP]
- EC50 [1]: 447 nM
- EC50 [2]: 309 nM
- EC50 [3]: 20.9 nM
- EC50 [4]: 182 nM
- EC50 [5]: 309 nM
